Key:
human tyrosinase = molecular target: T1, human tyrosinase (Homo sapiens, UniProt P14679); assay: Tyrosinase (DOPA oxidase) assay using cell lysate; type: biochemical; settings: SKMEL 188 human melanoma cell lysate; L-DOPA 100 μg/ml; 8 hr incubation; read at 405 nm
T1 construct: endogenous in cells; host or cells: SKMEL 188 human melanoma cell line (lysate)
T1 sequence (P14679 19-529): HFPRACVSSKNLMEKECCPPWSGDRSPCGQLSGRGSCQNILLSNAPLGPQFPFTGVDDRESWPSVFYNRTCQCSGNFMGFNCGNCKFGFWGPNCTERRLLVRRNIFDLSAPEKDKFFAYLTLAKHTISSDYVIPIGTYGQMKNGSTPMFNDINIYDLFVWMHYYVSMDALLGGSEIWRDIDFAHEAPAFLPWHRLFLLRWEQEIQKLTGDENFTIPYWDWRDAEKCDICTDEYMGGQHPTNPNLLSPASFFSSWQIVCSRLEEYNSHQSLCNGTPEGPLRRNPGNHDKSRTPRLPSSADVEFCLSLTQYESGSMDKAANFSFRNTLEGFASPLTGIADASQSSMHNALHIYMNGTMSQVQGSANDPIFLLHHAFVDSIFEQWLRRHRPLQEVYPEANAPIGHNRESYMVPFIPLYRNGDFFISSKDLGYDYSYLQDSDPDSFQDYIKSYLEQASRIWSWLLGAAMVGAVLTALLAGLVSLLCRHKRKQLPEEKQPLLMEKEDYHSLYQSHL
Description: 1. Tyrosinase (DOPA Oxidase) Assay Using Cell Lysate:
Human melanoma cell line, SKMEL 188 (licensed from Memorial Sloan-Kettering), is used in the cell lysate assay and the screen. In the assay, compounds and L-dihydroxyphenylalanine (L-DOPA) (100 μg/ml) are incubated with the cell lysates containing human tyrosinase for 8 hr before the plates are read at 405 nm. Potency of the compounds in DOPA oxidase assay is correlated very well with that in tyrosine hydroxylase assay using ^3H-tyrosine as a substrate.

[1] = tested on: guinea pig skin pigmentation; assay: In vivo study: skin depigmentation in black or dark brown guinea pigs; settings: 5% solution in ethanol:propylene glycol 70:30, topical, twice daily, 5 days per week for 4-8 weeks
Excerpt: Black or dark brown guinea pigs with homogeneous skin color can be used in this study. A solution of the test compound (5% in ethanol:propylene glycol, 70:30) and the vehicle control are applied to the animals twice daily, 5 days per week for 4-8 weeks.

IC50 (human tyrosinase): 200 nM
Compound: Oc1ccc(C2CCC(O)CC2)c(O)c1 (centres unmarked) [4-(2,4-dihydroxyphenyl)cyclohexanol]
depigmentation of skin [1]: depigmentation of skin
